Results taken from the supplement of paper PMC5908809.

How the values were obtained:
[1] = system: normal NK cells expanded with K562-aAPC; test: percent inhibition of viability; higher = more inhibition; conditions: 72 h, IL-2 2.5 ng/mL
Protocol: (§1)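 Drug sensitivity and resistance testing on K562-aAPC-expanded normal NK cells: 5 concentrations (10-fold steps over a 10,000-fold range), 72 h at 37 °C, viability by CellTiter-Glo normalised to DMSO and benzethonium chloride controls; DSS from the fitted curve.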

[2] = system: DERL-7 (IL-2 2.5 ng/mL); test: as above; conditions: 72 h
[3] = system: IMC-1 (IL-2 20 ng/mL); test: as above; conditions: 72 h
[4] = system: KAI3 (IL-2 2.5 ng/mL); test: as above; conditions: 72 h
[5] = system: KHYG-1 (IL-2 2.5 ng/mL); test: as above; conditions: 72 h
[6] = system: NK-92 (IL-2 2.5 ng/mL); test: as above; conditions: 72 h
[7] = system: NK-YS (IL-2 2.5 ng/mL); test: as above; conditions: 72 h
[8] = system: NKL (IL-2 2.5 ng/mL); test: as above; conditions: 72 h
[9] = system: SNK-6 (IL-2 2.5 ng/mL); test: as above; conditions: 72 h
[10] = system: YT (IL-2 2.5 ng/mL); test: as above; conditions: 72 h
[11] = system: normal primary NK cells, pool 1 (3 donors) (IL-2 2.5 ng/mL); test: as above; conditions: 72 h
[12] = system: normal primary NK cells, pool 1 (3 donors), resting (IL-2 0 ng/mL); test: as above; conditions: 72 h
[13] = system: normal primary NK cells, pool 2 (3 donors) (IL-2 2.5 ng/mL); test: as above; conditions: 72 h
[14] = system: normal primary NK cells, pool 3 (3 donors) (IL-2 2.5 ng/mL); test: as above; conditions: 72 h
[15] = system: normal NK cells expanded with K562-aAPC; test: drug sensitivity score (DSS) (DSS units); higher = more sensitive; extreme values may be limits of the assay; conditions: 72 h; IL-2 2.5 ng/mL
Protocol: as §1

[16] = system: DERL-7 (IL-2 2.5 ng/mL); test: as above; conditions: 72 h
[17] = system: IMC-1 (IL-2 20 ng/mL); test: as above; conditions: 72 h
[18] = system: KAI3 (IL-2 2.5 ng/mL); test: as above; conditions: 72 h
[19] = system: KHYG-1 (IL-2 2.5 ng/mL); test: as above; conditions: 72 h
[20] = system: NK-92 (IL-2 2.5 ng/mL); test: as above; conditions: 72 h
[21] = system: NK-YS (IL-2 2.5 ng/mL); test: as above; conditions: 72 h
[22] = system: NKL (IL-2 2.5 ng/mL); test: as above; conditions: 72 h
[23] = system: SNK-6 (IL-2 2.5 ng/mL); test: as above; conditions: 72 h
[24] = system: YT (IL-2 2.5 ng/mL); test: as above; conditions: 72 h
[25] = system: normal primary NK cells, pool 1 (3 donors) (IL-2 2.5 ng/mL); test: as above; conditions: 72 h
[26] = system: normal primary NK cells, pool 1 (3 donors), resting (IL-2 0 ng/mL); test: as above; conditions: 72 h
[27] = system: normal primary NK cells, pool 2 (3 donors) (IL-2 2.5 ng/mL); test: as above; conditions: 72 h
[28] = system: normal primary NK cells, pool 3 (3 donors) (IL-2 2.5 ng/mL); test: as above; conditions: 72 h

NC(=O)c1cccc2cn(-c3ccc([C@@H]4CCCNC4)cc3)nc12 [Niraparib] (max concentration tested 10000 nM)
percent inhibition of viability [%]
Conditions | 1 nM | 10 nM | 100 nM | 1000 nM | 10000 nM
[1] | 0.08 | 1.98 | 2.28 | 18.1 | 32.5
[2] | 0.54 | 3.15 | 0.76 | 8.32 | 68.3
[3] | -4.38 | 1.54 | 3.53 | 17.8 | 95.6
[4] | -1.88 | 8.15 | 4.77 | 19.1 | 78.8
[5] | -5.84 | 6.09 | -1.02 | 10.6 | 92.7
[6] | 4.26 | 12 | 8.71 | 15.1 | 92.8
[7] | -10.5 | -0.47 | -4.5 | 25.4 | 94.5
[8] | -9.92 | 5.83 | 22.1 | 72.4 | 82.9
[9] | -11.2 | -10.2 | 1.34 | 0.26 | 86.7
[10] | -0.31 | 5.58 | -0.5 | -2.07 | 34
[11] | 6.04 | -0.22 | -4.85 | -8.51 | -4.48
[12] | 1.46 | -12.9 | -7.56 | -30.2 | -19.6
[13] | -5.25 | -5.29 | 0.44 | -5.11 | 2.06
[14] | -3.37 | -7.45 | 1.14 | -2 | 0.09

Conditions | drug sensitivity score
[15] | 3.36
[16] | 5.15
[17] | 8.2
[18] | 7.35
[19] | 6.89
[20] | 7.65
[21] | 9.06
[22] | 16
[23] | 4.87
[24] | 1.42
[25] | 0
[26] | 0
[27] | 0
[28] | 0
